According to patent publication US11827628B2, “Compositions and methods for inhibition of the JAK pathway” (Rigel Pharmaceuticals, Inc., priority 2005, dated 2023):
Where two headings read alike, the source gives them in different places.

Experiments:
[1] = test system: up-regulation of ICAM-1 (CD54) by IFNγ in U937 human monocytic cells; test: U937 IFNγ ICAM1 FACS Assay; format: cell-based; details: ICAM-1 expression by FACS, read-out: IC50, Example 44
In short: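 U937 cells in 10% FCS RPMI were preincubated 30 min at 37 °C with an 8-point, 3-fold compound dilution series in duplicate, then stimulated with IFNγ for 18–24 h. Surface ICAM-1 was stained with APC anti-ICAM-1 and read by flow cytometry as geometric mean on live-gated cells. EC50 was derived.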

[2] = test system: IL-4 stimulated expression of CD23 in human Ramos B cells (JAK-1 and JAK-3); test: Assay for Ramos B-Cell Line Stimulated with IL-4 (CD23 upregulation, FACS); format: cell-based; details: read-out: IC50, Example 41
In short: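 Steps: Ramos B cells are suspended in RPMI with 5% serum, exposed to compound for 1 h at 37 °C, stimulated with IL-4 (final 50 units/mL) for 20-24 h, stained for CD23 and analysed by flow cytometry. IC50 is calculated.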

[3] = U937 cells stimulated with IFNγ
[4] = Ramos B cells stimulated with IL-4, CD23 expression by FACS
[5] = Homo sapiens, U-937, U937 cells stimulated with IFNγ
[6] = Homo sapiens, Ramos, Ramos B-cell line stimulated with IL-4, CD23 expression by FACS

| SMILES | IC50 [1, 3] | IC50 [2, 4] | IC50 [1, 5] | IC50 [2, 6] | IC50 ([2]; Homo sapiens, Ramos, Ramos B cells stimulated with IL-4, CD23 expression by FACS) |
| --- | --- | --- | --- | --- | --- |
| Cc1ccc(Nc2ncc(F)c(Nc3ccc(CN4CCOCC4)cc3)n2)cc1S(N)(=O)=O [III-104, N2-(3-Aminosulfonyl-4-methylphenyl)-5-fluoro-N4-(4-N-morpholinomethylenephenyl)-2,4-pyrimidinediamine] | 2160 nM | 242 nM |  |  |  |
| Cc1ccc(Nc2ncc(F)c(Nc3cccc(OC4CCN(C)CC4)c3)n2)cc1S(N)(=O)=O [II-2, N2-(3-Aminosulfonyl-4-methylphenyl)-5-fluoro-N4-{3-[(1-methylpiperidin-4-yl)oxy]phenyl}-2,4-pyrimidinediamine] |  |  | 4590 nM | 244 nM |  |
| COc1ccc(Nc2ncc(F)c(Nc3ccc(Cc4ccncc4)cc3)n2)cc1S(N)(=O)=O [III-66, N2-(3-Aminosulfonyl-4-methoxyphenyl)-5-fluoro-N4-[4-(4-pyridinylmethyl)phenyl]-2,4-pyrimidinediamine] |  |  | 967 nM | 142 nM |  |
| NS(=O)(=O)c1ccc(Nc2ncc(F)c(Nc3ccc(Cc4ccncc4)cc3)n2)cc1 [III-71, N2-(4-Aminosulfonylphenyl)-5-fluoro-N4-[4-(4-pyridinylmethyl)phenyl]-2,4-pyrimidinediamine] |  |  | 1700 nM | 97.9 nM |  |
| Cc1cc(Nc2nc(Nc3ccc(S(N)(=O)=O)cc3)ncc2F)cc(C)c1N1CCN(C)CC1 [IX-44, N2-(4-Aminosulfonylphenyl)-N4-[3,5-dimethyl-4-(4-methylpiperazin-1-yl]phenyl)-5-fluoro-2,4-pyrimidinediamine] |  |  | 2940 nM |  | 223 nM |
| COc1ccc(Nc2ncc(F)c(Nc3ccc(CN4CCSCC4)cc3)n2)cc1S(N)(=O)=O [III-109, N2-(3-Aminosulfonyl-4-methyoxyphenyl)-5-fluoro-N4-(4-thiomorpholinomethylenephenyl)-2,4-pyrimidinediamine] | 531 nM | 143 nM |  |  |  |
| Cc1ccc(Nc2ncc(F)c(Nc3ccc(Oc4cccnc4)cc3)n2)cc1S(N)(=O)=O [II-12, N2-(3-Aminosulfonyl-4-methylphenyl)-5-fluoro-N4-[4-(3-pyridyloxy)phenyl]-2,4-pyrimidinediamine] |  |  | 1190 nM | 56.3 nM |  |
| Cc1cc(Nc2nc(Nc3ccc(C)c(S(N)(=O)=O)c3)ncc2F)ccc1CCC#N [III-19, N2-(3-Aminosulfonyl-4-methylphenyl)-N4-[4-(2-cyanoethyl)-3-methylphenyl]-5-fluoro-2,4-pyrimidinediamine] |  |  | 55.6 nM | 72.3 nM |  |
| Cc1ccc(Nc2ncc(C)c(Nc3ccc(OCC#N)cc3)n2)cc1S(N)(=O)=O [Compound I-59, N2-(3-Aminosulfonyl-4-methylphenyl)-N4-(4-cyanomethoxyphenyl)-5-methyl-2,4-pyrimidinediamine] |  |  | 57.7 nM | 6.55 nM |  |
| Cc1ccc(Nc2ncc(F)c(Nc3ccc(OC4CCN(C)CC4)c(C(F)(F)F)c3)n2)cc1S(N)(=O)=O [II-6, N2-(3-Aminosulfonyl-4-methylphenyl)-5-fluoro-N4-{4-[(1-methylpiperidin-4-yl)oxy]-3-trifluoromethylphenyl}-2,4-pyrimidinediamine] |  |  | 6390 nM | 111 nM |  |
| C=CCNC(=O)COc1ccc(Nc2nc(Nc3ccc(C)c(S(N)(=O)=O)c3)ncc2F)cc1 [Compound I-159, N4-(4-Allylaminocarbonylmethoxyphenyl)-N2-(3-aminosulfonyl-4-methylphenyl)-5-fluoro-2,4-pyrimidinediamine] |  |  | 1630 nM | 338 nM |  |
| Cc1cnc(Nc2ccc(Cl)c(S(N)(=O)=O)c2)nc1Nc1ccc(CCC#N)cc1 [III-12, N2-(3-Aminosulfonyl-4-chlorophenyl)-N4-[4-(2-cyanoethyl)phenyl]-5-methyl-2,4-pyrimidinediamine] |  |  | 321 nM | 70 nM |  |
| Cc1ccc(Nc2nc(Nc3ccc(C)c(S(N)(=O)=O)c3)ncc2F)cc1OCCN1CCOCC1 [Compound I-204, N2-(3-Aminosulfonyl-4-methylphenyl)-5-fluoro-N4-[4-methyl-3-(2-morpholinoethyloxy)phenyl]2,4-pyrimidinediamine] |  |  | 3930 nM | 256 nM |  |
| Cc1ccc(Nc2ncc(F)c(NCCc3ccc(-c4ccncc4)cc3)n2)cc1S(N)(=O)=O [III-77, N2-(3-Aminosulfonyl-4-methylphenyl)-5-fluoro-N4-[4-(4-pyridinyl)phenethyl]-2,4-pyrimidinediamine] |  |  | 681 nM | 177 nM |  |

Results, then the molecule that gave them:

| IC50 [1, 3] | IC50 [2, 4] | IC50 [1, 5] | IC50 [2, 6] | IC50 ([2]; Homo sapiens, Ramos, Ramos B cells stimulated with IL-4, CD23 expression by FACS) | SMILES |
| --- | --- | --- | --- | --- | --- |
|  |  | 2990 nM | 262 nM |  | CN(C)C(=O)COc1ccc(Nc2nc(Nc3ccc(S(N)(=O)=O)cc3)ncc2F)cc1Cl [Compound I-131, N2-(4-Aminosulfonylphenyl)-N4-(3-chloro-4-dimethylaminocarbonylmethoxyphenyl)-5-fluoro-2,4-pyrimidinediamine] |
|  |  | 759 nM | 120 nM |  | COc1cc(Nc2nc(Nc3ccc(C)c(S(N)(=O)=O)c3)ncc2F)ccc1OCC#N [Compound I-47, N2-(3-Aminosulfonyl-4-methylphenyl)-N4-(4-cyanomethoxy-3-methoxyphenyl)-5-fluoro-2,4-pyrimidinediamine] |
|  |  | 465 nM | 84.3 nM |  | Cc1cc(COc2ccc(Nc3nc(Nc4cccc(S(N)(=O)=O)c4)ncc3F)cc2)no1 [Compound I-230, N2-(3-Aminosulfonylphenyl)-5-fluoro-N4-[4-(5-methylisoxazol-3-yl)methyleneoxyphenyl]-2,4-pyrimidinediamine] |
|  |  | 35300 nM | 366 nM |  | COc1cc(Nc2nc(Nc3ccc(S(N)(=O)=O)cc3)ncc2F)cc(OCC#N)c1OC [Compound I-1, N2-(4-Aminosulphonylphenyl)-N4-(3-cyanomethoxy-4,5-dimethoxyphenyl)-5-fluoro-2,4-pyrimidinediamine] |
|  |  | 29600 nM | 387 nM |  | Cc1cnc(Nc2ccc(S(N)(=O)=O)cc2)nc1Nc1ccc(OCC(=O)N(C)C)c(F)c1 [Compound I-137, N2-(4-Aminosulfonylphenyl)-N4-(4-dimethylaminocarbonylmethoxy-3-fluorophenyl)-5-methyl-2,4-pyrimidinediamine] |
|  |  | 424 nM | 104 nM |  | COc1ccc(Nc2ncc(F)c(Nc3ccc(OCC#N)cc3)n2)cc1S(N)(=O)=O [Compound I-56, N2-(3-Aminosulfonyl-4-methoxyphenyl)-N4-(4-cyanomethoxyphenyl)-5-fluoro-2,4-pyrimidinediamine] |
|  |  | 14700 nM | 161 nM |  | CNC(=O)COc1ccc(Nc2nc(Nc3ccc(S(N)(=O)=O)cc3)ncc2C)cc1Cl [Compound I-149, N2-(4-Aminosulfonylphenyl)-N4-(3-chloro-4-methylaminocarbonylmethoxyphenyl)-5-methyl-2,4-pyrimidinediamine] |
|  |  | 9470 nM | 461 nM |  | Cc1cnc(Nc2cccc(S(N)(=O)=O)c2)nc1Nc1ccc(OCC(=O)N(C)C)c(F)c1 [Compound I-138, N2-(3-Aminosulfonylphenyl)-N4-(4-dimethylaminocarbonylmethoxy-3-fluorophenyl)-5-methyl-2,4-pyrimidinediamine] |
|  |  | 36600 nM | 328 nM |  | NC(=O)COc1ccc(Nc2nc(Nc3cccc(S(N)(=O)=O)c3)ncc2F)cc1F [Compound I-101, N4-(4-Aminocarbonylmethoxy-3-fluorophenyl)-N2-(3-aminosulfonylphenyl)-5-fluoro-2,4-pyrimidinediamine] |
|  |  | 782 nM | 56.7 nM |  | Cc1ccc(Nc2ncc(F)c(Nc3ccc(CCC#N)c(F)c3)n2)cc1S(N)(=O)=O [III-17, N2-(3-Aminosulfonyl-4-methylphenyl)-5-fluoro-N4-[4-(2-cyanoethyl)-3-fluorophenyl]-2,4-pyrimidinediamine] |
|  |  | 3240 nM | 178 nM |  | Cc1cnc(Nc2ccc(S(N)(=O)=O)cc2)nc1Nc1ccc(OCC(=O)N(C)C)c(Cl)c1 [Compound I-134, N2-(4-Aminosulfonylphenyl)-N4-(3-chloro-4-dimethylaminocarbonylmethoxyphenyl)-5-methyl-2,4-pyrimidinediamine] |
| 13600 nM | 247 nM |  |  |  | NS(=O)(=O)c1cccc(Nc2ncc(F)c(Nc3ccc(CN4CCS(=O)(=O)CC4)cc3)n2)c1 [III-110, N2-(3-Aminosulfonylphenyl)-5-fluoro-N4-{4-[(1,1-dioxothiomorpholin-4-yl-)methyl]phenyl}-2,4-pyrimidinediamine] |
|  |  | 2620 nM | 65.5 nM |  | CNC(=O)COc1ccc(Nc2nc(Nc3ccc(C)c(S(N)(=O)=O)c3)ncc2C)cc1F [Compound I-156, N2-(3-Aminosulfonyl-4-methylphenyl)-N4-(3-fluoro-4-methylaminocarbonylmethoxyphenyl)-5-methyl-2,4-pyrimidinediamine] |
|  |  | 912 nM | 107 nM |  | NS(=O)(=O)c1cccc(Nc2ncc(F)c(Nc3ccc(Oc4cccnc4)cc3)n2)c1 [II-11, N2-(3-Aminosulfonylphenyl)-5-fluoro-N4-[4-(3-pyridyloxy)phenyl]-2,4-pyrimidinediamine] |
|  |  | 3930 nM | 358 nM |  | Cc1ccc(Nc2ncc(C)c(Nc3ccc(OCC(N)=O)cc3)n2)cc1S(N)(=O)=O [Compound I-110, N4-(4-Aminocarbonylmethoxyphenyl)-N2-(3-aminosulfonyl-4-methylphenyl)-5-methyl-2,4-pyrimidinediamine] |
|  |  | 1830 nM | 112 nM |  | Cc1cnc(Nc2cccc(S(N)(=O)=O)c2)nc1Nc1ccc(OCC(=O)N(C)C)c(Cl)c1 [Compound I-135, N2-(3-Aminosulfonylphenyl)-N4-(3-chloro-4-dimethylaminocarbonylmethoxyphenyl)-5-methyl-2,4-pyrimidinediamine] |
